# Test results reported in PubChem BioAssay AID180 (DTP/NCI, 2004).
# Where “and” joins values, the source holds several entries; their conditions need not be identical. Identical values can stand only once.
# Test system: BDF1 mice, Adenocarcinoma 755 s.c., tumor weight T/C
# Test: NCI In Vivo Anticancer Drug Screen. Data for tumor model Adenocarcinoma 755 (subcutaneous) in B6D2F1 (BDF1) mice
# Conditions: endpoint: mean tumor weight, higher = larger tumour
# Procedure, shortened: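 Readout: T/C, i.e. treated-group measurement over vehicle-control measurement. Endpoint is survival or tumor size in tumor-bearing mice given compound.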
# [1] = dose: 31.25 mg/kg/injection, schedule: Q01DX011 (ip), vehicle: methylcellulose (MC)
# [2] = dose: 125.0 mg/kg/injection, schedule: Q01DX011 (ip), vehicle: methylcellulose (MC)
# [3] = dose: 200.0 mg/kg/injection, schedule: Q01DX011 (ip), vehicle: carboxymethylcellulose (CMC)
# [4] = dose: 50.0 mg/kg/injection, schedule: Q01DX011 (ip), vehicle: other
# [5] = dose: 100.0 mg/kg/injection, schedule: Q01DX011 (ip), vehicle: other
# [6] = dose: 3.0 mg/kg/injection, schedule: Q01DX011 (ip), vehicle: other
smiles,measurement,setting,value
S=c1nc[nH]c2c1ncn2C1CCCCC1,T/C,"dose: 62.0 mg/kg/injection, schedule: Q01DX011 (ip), vehicle: carboxymethylcellulose (CMC)",117 % of control
same,T/C,"dose: 125.0 mg/kg/injection, schedule: Q01DX011 (ip), vehicle: carboxymethylcellulose (CMC)",118 % of control
same,T/C,"dose: 188.0 mg/kg/injection, schedule: Q01DX011 (oral), vehicle: carboxymethylcellulose (CMC)",154 % of control
same,T/C,"dose: 250.0 mg/kg/injection, schedule: Q01DX011 (ip), vehicle: carboxymethylcellulose (CMC)",66 % of control
same,T/C,"dose: 376.0 mg/kg/injection, schedule: Q01DX011 (oral), vehicle: carboxymethylcellulose (CMC)",104 % of control
same,T/C,"dose: 500.0 mg/kg/injection, schedule: Q01DX011 (ip), vehicle: carboxymethylcellulose (CMC)",62 % of control
same,T/C,"dose: 752.0 mg/kg/injection, schedule: Q01DX011 (oral), vehicle: carboxymethylcellulose (CMC)",87 % of control
C[C@]12CC[C@@H]3c4ccc(OC(=O)c5ccccc5)cc4CC[C@H]3[C@@H]1CC[C@@H]2O,T/C,"dose: 77.31 mg/kg/injection, schedule: Q01DX011 (sc), vehicle: steriod suspending solution",81 % of control
same,T/C,"dose: 125.0 mg/kg/injection, schedule: Q01DX011 (sc), vehicle: steriod suspending solution",66 % of control
same,T/C,"dose: 154.63 mg/kg/injection, schedule: Q01DX011 (sc), vehicle: steriod suspending solution",94 % of control
same,T/C,"dose: 250.0 mg/kg/injection, schedule: Q01DX011 (sc), vehicle: steriod suspending solution",87 % of control
same,T/C,"dose: 309.25 mg/kg/injection, schedule: Q01DX011 (sc), vehicle: steriod suspending solution",72 % of control
same,T/C,"dose: 500.0 mg/kg/injection, schedule: Q01DX011 (sc), vehicle: steriod suspending solution",84 % of control
same,T/C,"dose: 618.5 mg/kg/injection, schedule: Q01DX011 (sc), vehicle: steriod suspending solution",91 % of control
same,T/C,"dose: 1000.0 mg/kg/injection, schedule: Q01DX011 (sc), vehicle: steriod suspending solution",54 % of control
Cc1cccc(CSc2nc(N)nc3nc[nH]c23)n1,T/C,"dose: 3.9 mg/kg/injection, schedule: Q01DX011 (ip), vehicle: methylcellulose (MC)",17 % of control
same,T/C,"dose: 7.8 mg/kg/injection, schedule: Q01DX011 (ip), vehicle: methylcellulose (MC)",20 % of control
same,T/C,"dose: 15.6 mg/kg/injection, schedule: Q01DX011 (ip), vehicle: methylcellulose (MC)",5 % of control
same,T/C,[1],1 % of control
CCNc1nncs1,T/C,"dose: 8.63 mg/kg/injection, schedule: Q01DX011 (ip), vehicle: carboxymethylcellulose (CMC)",65 % of control
same,T/C,"dose: 14.22 mg/kg/injection, schedule: Q01DX011 (ip), vehicle: carboxymethylcellulose (CMC)",73 % of control
same,T/C,"dose: 17.25 mg/kg/injection, schedule: Q01DX011 (ip), vehicle: carboxymethylcellulose (CMC)",77 % of control
same,T/C,"dose: 28.45 mg/kg/injection, schedule: Q01DX011 (ip), vehicle: carboxymethylcellulose (CMC)",84 % of control
same,T/C,[1],62 % of control
same,T/C,"dose: 34.5 mg/kg/injection, schedule: Q01DX011 (ip), vehicle: carboxymethylcellulose (CMC)",101 % of control
same,T/C,"dose: 56.9 mg/kg/injection, schedule: Q01DX011 (ip), vehicle: carboxymethylcellulose (CMC)",89 % of control and 80 % of control and 84 % of control
same,T/C,"dose: 62.5 mg/kg/injection, schedule: Q01DX011 (ip), vehicle: methylcellulose (MC)",49 % of control
same,T/C,"dose: 69.0 mg/kg/injection, schedule: Q01DX011 (ip), vehicle: carboxymethylcellulose (CMC)",103 % of control
same,T/C,"dose: 75.8 mg/kg/injection, schedule: Q01DX011 (ip), vehicle: carboxymethylcellulose (CMC)",58 % of control and 75 % of control
same,T/C,[2],6 % of control
O=C(NC(CO)C(=O)O)C(Cl)Cl (configuration not stated),T/C,"dose: 1000.0 mg/kg/injection, schedule: Q01DX011 (ip), vehicle: methylcellulose (MC)",93 % of control
CSc1ncc(Br)c(Nc2ccccc2C)n1,T/C,"dose: 15.0 mg/kg/injection, schedule: Q01DX011 (ip), vehicle: methylcellulose (MC)",94 % of control
same,T/C,"dose: 31.0 mg/kg/injection, schedule: Q01DX011 (ip), vehicle: methylcellulose (MC)",87 % of control
same,T/C,"dose: 62.0 mg/kg/injection, schedule: Q01DX011 (ip), vehicle: methylcellulose (MC)",110 % of control
same,T/C,[2],117 % of control
same,T/C,"dose: 250.0 mg/kg/injection, schedule: Q01DX011 (ip), vehicle: methylcellulose (MC)",107 % of control
Cn1cnc2c(ncn2C2CC(O)C(CO)O2)c1=O (configuration not stated),T/C,"dose: 120.0 mg/kg/injection, schedule: Q01DX011 (ip), vehicle: saline",105 % of control
same,T/C,"dose: 240.0 mg/kg/injection, schedule: Q01DX011 (ip), vehicle: saline",98 % of control
O=C(O)c1ccc(-c2ccccc2)cc1,T/C,[3],80 % of control
C=C1CN(CC)CCO1,T/C,[4],73 % of control
same,T/C,[5],72 % of control
CC(=O)OCC1OC(n2cnc3c(=S)nc(N)[nH]c32)C(OC(C)=O)C1OC(C)=O (configuration not stated),T/C,"dose: 0.1 mg/kg/injection, schedule: Q01DX011 (ip), vehicle: carboxymethylcellulose (CMC)",86 % of control
same,T/C,"dose: 0.2 mg/kg/injection, schedule: Q01DX011 (ip), vehicle: carboxymethylcellulose (CMC)",77 % of control
same,T/C,"dose: 0.5 mg/kg/injection, schedule: Q01DX011 (ip), vehicle: carboxymethylcellulose (CMC)",69 % of control
same,T/C,"dose: 1.0 mg/kg/injection, schedule: Q01DX011 (ip), vehicle: carboxymethylcellulose (CMC)",11 % of control and 35 % of control
same,T/C,"dose: 1.5 mg/kg/injection, schedule: Q01DX011 (ip), vehicle: other",26 % of control
same,T/C,[6],3 % of control
O=S(=O)(F)c1nc(Cl)c2[nH]cnc2n1,T/C,"dose: 6.2 mg/kg/injection, schedule: Q01DX011 (ip), vehicle: methylcellulose (MC)",117 % of control
O=c1[nH]c2cnc(Cl)nc2[nH]1,T/C,"dose: 30.0 mg/kg/injection, schedule: Q01DX011 (ip), vehicle: carboxymethylcellulose (CMC)",116 % of control
same,T/C,"dose: 60.0 mg/kg/injection, schedule: Q01DX011 (ip), vehicle: carboxymethylcellulose (CMC)",85 % of control
same,T/C,"dose: 120.0 mg/kg/injection, schedule: Q01DX011 (ip), vehicle: carboxymethylcellulose (CMC)",168 % of control
CC(=O)Nc1c(Cl)cc2c(c1Cl)Cc1cc([N+](=O)[O-])ccc1-2,T/C,"dose: 0.8 mg/kg/injection, schedule: Q01DX011 (ip), vehicle: carboxymethylcellulose (CMC)",32 % of control
same,T/C,"dose: 1.6 mg/kg/injection, schedule: Q01DX011 (ip), vehicle: carboxymethylcellulose (CMC)",47 % of control
same,T/C,[6],61 % of control
same,T/C,"dose: 3.12 mg/kg/injection, schedule: Q01DX011 (ip), vehicle: carboxymethylcellulose (CMC)",25 % of control
same,T/C,"dose: 6.0 mg/kg/injection, schedule: Q01DX011 (ip), vehicle: other",87 % of control
same,T/C,"dose: 6.25 mg/kg/injection, schedule: Q01DX011 (ip), vehicle: carboxymethylcellulose (CMC)",31 % of control and 33 % of control
same,T/C,"dose: 6.25 mg/kg/injection, schedule: Q01DX011 (ip), vehicle: other",59 % of control
same,T/C,"dose: 12.5 mg/kg/injection, schedule: Q01DX011 (ip), vehicle: carboxymethylcellulose (CMC)",15 % of control
same,T/C,"dose: 12.5 mg/kg/injection, schedule: Q01DX011 (ip), vehicle: other",22 % of control and 35 % of control
same,T/C,"dose: 25.0 mg/kg/injection, schedule: Q01DX011 (ip), vehicle: carboxymethylcellulose (CMC)",9 % of control
same,T/C,"dose: 25.0 mg/kg/injection, schedule: Q01DX011 (ip), vehicle: other",24 % of control and 45 % of control
same,T/C,"dose: 50.0 mg/kg/injection, schedule: Q01DX011 (ip), vehicle: carboxymethylcellulose (CMC)",9 % of control
same,T/C,[4],31 % of control and 35 % of control
same,T/C,"dose: 100.0 mg/kg/injection, schedule: Q01DX011 (ip), vehicle: carboxymethylcellulose (CMC)",8 % of control
same,T/C,[5],30 % of control
same,T/C,[3],6 % of control and 25 % of control
same,T/C,"dose: 200.0 mg/kg/injection, schedule: Q01DX011 (ip), vehicle: other",26 % of control
same,T/C,"dose: 300.0 mg/kg/injection, schedule: Q01DX011 (ip), vehicle: carboxymethylcellulose (CMC)",6 % of control
same,T/C,"dose: 400.0 mg/kg/injection, schedule: Q01DX011 (ip), vehicle: other",20 % of control
S=c1c2[nH]cnc2ncn1CCSC1=NC=NC2=NC=NC21 (configuration not stated),T/C,"dose: 4.0 mg/kg/injection, schedule: Q01DX011 (ip), vehicle: methylcellulose (MC)",61 % of control
same,T/C,"dose: 8.0 mg/kg/injection, schedule: Q01DX011 (ip), vehicle: methylcellulose (MC)",71 % of control
same,T/C,"dose: 16.0 mg/kg/injection, schedule: Q01DX011 (ip), vehicle: methylcellulose (MC)",19 % of control
Cn1c2c(sc1=O)CCC2,T/C,"dose: 88.0 mg/kg/injection, schedule: Q01DX011 (ip), vehicle: methylcellulose (MC)",54 % of control
same,T/C,"dose: 175.0 mg/kg/injection, schedule: Q01DX011 (ip), vehicle: methylcellulose (MC)",80 % of control
C[C@]12CC[C@H](O)CC1=CC[C@@H]1[C@@H]2[C@@H](O)C[C@@]2(C)[C@H]1CC[C@]2(C)O,T/C,"dose: 100.0 mg/kg/injection, schedule: Q01DX011 (sc), vehicle: steriod suspending solution",96 % of control
same,T/C,"dose: 300.0 mg/kg/injection, schedule: Q01DX011 (sc), vehicle: steriod suspending solution",93 % of control
